From the supplement of paper PMC10307832 come the findings set out here.

What all share (assay): relative viability (nuclei count vs DMSO), 5 days (fraction); higher = more cells survive
Compound in the test “VX-11e + Bortezomib”: CC1=CN=C(N=C1C2=CNC(=C2)C(=O)N[C@H](CO)C3=CC(=CC=C3)Cl)NC4=C(C=C(C=C4)F)Cl [VX-11e] + CC(C)C[C@H](NC(=O)[C@H](Cc1ccccc1)NC(=O)c1cnccn1)B(O)O [Bortezomib] (partner 0.002 µM)
In short, it runs like this:
(§1)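 Relative viability was taken as the ratio of nuclei in treated wells to nuclei in vehicle wells. Lung cancer cell lines in 1536-well plates received compounds by pin tool one day after seeding, either one drug alone or a fixed anchor-drug dose plus five library-drug doses (not always all listed) in √10 steps. Nuclei were counted on 4× images after 5 days of treatment, and values are medians of duplicate plates.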

Compound in the test “VX-11e + Pemetrexed”: CC1=CN=C(N=C1C2=CNC(=C2)C(=O)N[C@H](CO)C3=CC(=CC=C3)Cl)NC4=C(C=C(C=C4)F)Cl [VX-11e] + Nc1nc2[nH]cc(CCc3ccc(C(=O)N[C@@H](CCC(=O)O)C(=O)O)cc3)c2c(=O)[nH]1 [Pemetrexed] (partner 0.2 µM)
The procedure, abridged:
as §1

Compound in the test “VX-11e + Alpelisib”: CC1=CN=C(N=C1C2=CNC(=C2)C(=O)N[C@H](CO)C3=CC(=CC=C3)Cl)NC4=C(C=C(C=C4)F)Cl [VX-11e] + Cc1nc(NC(=O)N2CCC[C@H]2C(N)=O)sc1-c1ccnc(C(C)(C)C(F)(F)F)c1 [Alpelisib] (partner 2 µM)
The procedure, abridged:
as §1

Compound in the test “VX-11e + Olaparib”: CC1=CN=C(N=C1C2=CNC(=C2)C(=O)N[C@H](CO)C3=CC(=CC=C3)Cl)NC4=C(C=C(C=C4)F)Cl [VX-11e] + O=C(c1cc(Cc2n[nH]c(=O)c3ccccc23)ccc1F)N1CCN(C(=O)C2CC2)CC1 [Olaparib] (partner 8 µM)
In short, it runs like this: as §1

Take HOP-62: the relative viability in the test with VX-11e + Bortezomib (first compound 0.04 µM) was determined as 0.688; with VX-11e + Bortezomib (first compound 0.1265 µM), 0.963; with VX-11e + Bortezomib (first compound 0.4 µM) it was 0.553; with VX-11e + Bortezomib (first compound 1.265 µM), 0.214; with VX-11e + Bortezomib (first compound 4 µM), 0.515; with VX-11e + Pemetrexed (first compound 0.04 µM), 0.348. Also, the relative viability with VX-11e + Pemetrexed (first compound 0.1265 µM) amounted to 0.264; with VX-11e + Pemetrexed (first compound 0.4 µM), 0.277; in the test with VX-11e + Pemetrexed (first compound 1.265 µM), 0.192; with VX-11e + Pemetrexed (first compound 4 µM) it was 0.22; in the test with VX-11e + Alpelisib (first compound 0.04 µM) it was 1.05; with VX-11e + Alpelisib (first compound 0.1265 µM), 0.921. The relative viability came out at 0.892 with VX-11e + Alpelisib (first compound 0.4 µM); 0.866 in the test with VX-11e + Alpelisib (first compound 1.265 µM); 0.502 with VX-11e + Alpelisib (first compound 4 µM); 0.668 with VX-11e + Olaparib (first compound 0.04 µM); 0.248 with VX-11e + Olaparib (first compound 0.1265 µM); 0.174 with VX-11e + Olaparib (first compound 0.4 µM). In addition, the relative viability with VX-11e + Olaparib (first compound 1.265 µM) was determined as 0.304; in the test with VX-11e + Olaparib (first compound 4 µM) it was 0.24.

For the cell line IA-LM, the relative viability with VX-11e + Bortezomib (first compound 0.04 µM) worked out at 0.959; with VX-11e + Bortezomib (first compound 0.1265 µM) it was 0.941; with VX-11e + Bortezomib (first compound 0.4 µM), 0.927; with VX-11e + Bortezomib (first compound 1.265 µM) it was 0.306; in the test with VX-11e + Bortezomib (first compound 4 µM), 0.105; in the test with VX-11e + Alpelisib (first compound 0.04 µM), 0.855. For the same cell line, the relative viability with VX-11e + Alpelisib (first compound 0.1265 µM) turned out to be 0.734; in the test with VX-11e + Alpelisib (first compound 0.4 µM), 0.756; with VX-11e + Alpelisib (first compound 1.265 µM), 0.387; with VX-11e + Alpelisib (first compound 4 µM) it was 0.143; with VX-11e + Olaparib (first compound 0.04 µM), 0.877; with VX-11e + Olaparib (first compound 0.1265 µM), 0.864. The relative viability is 0.963 in the test with VX-11e + Olaparib (first compound 0.4 µM), 0.536 with VX-11e + Olaparib (first compound 1.265 µM) and 0.173 in the test with VX-11e + Olaparib (first compound 4 µM).

Take LK-2: the relative viability in the test with VX-11e + Pemetrexed (first compound 0.04 µM) came to 0.171; with VX-11e + Pemetrexed (first compound 0.1265 µM) it was 0.269; in the test with VX-11e + Pemetrexed (first compound 0.4 µM), 0.145; with VX-11e + Pemetrexed (first compound 1.265 µM) it was 0.183; with VX-11e + Pemetrexed (first compound 4 µM) it was 0.16; with VX-11e + Alpelisib (first compound 0.1265 µM), 1.06. For the same cell line, the relative viability in the test with VX-11e + Alpelisib (first compound 0.4 µM) amounted to 1.21; with VX-11e + Alpelisib (first compound 4 µM) it was 0.543; with VX-11e + Olaparib (first compound 0.04 µM), 0.688; in the test with VX-11e + Olaparib (first compound 0.1265 µM) it was 0.783; with VX-11e + Olaparib (first compound 0.4 µM) it was 0.676; in the test with VX-11e + Olaparib (first compound 1.265 µM), 0.657. In addition, the relative viability with VX-11e + Olaparib (first compound 4 µM) was determined as 0.45.

As for NCI-H358, the relative viability worked out at 0.188 with VX-11e + Pemetrexed (first compound 0.04 µM); 0.171 with VX-11e + Pemetrexed (first compound 0.1265 µM); 0.17 with VX-11e + Pemetrexed (first compound 0.4 µM); 0.171 with VX-11e + Pemetrexed (first compound 1.265 µM); 0.136 with VX-11e + Pemetrexed (first compound 4 µM); 0.857 with VX-11e + Alpelisib (first compound 0.04 µM). Further, the relative viability came to 0.89 in the test with VX-11e + Alpelisib (first compound 0.1265 µM); 0.541 in the test with VX-11e + Alpelisib (first compound 1.265 µM); 0.237 with VX-11e + Alpelisib (first compound 4 µM); 0.594 in the test with VX-11e + Olaparib (first compound 0.04 µM); 0.525 with VX-11e + Olaparib (first compound 0.1265 µM); 0.525 with VX-11e + Olaparib (first compound 0.4 µM). The figures for the relative viability with VX-11e + Olaparib (first compound 1.265 µM) and with VX-11e + Olaparib (first compound 4 µM) were 0.441 and 0.163, respectively.

Consider NCI-H522, for which the relative viability with VX-11e + Pemetrexed (first compound 0.04 µM) is 0.861; in the test with VX-11e + Pemetrexed (first compound 0.1265 µM), 0.936; in the test with VX-11e + Pemetrexed (first compound 0.4 µM) it was 0.962; in the test with VX-11e + Pemetrexed (first compound 1.265 µM), 0.76; with VX-11e + Pemetrexed (first compound 4 µM) it was 0.59; with VX-11e + Olaparib (first compound 0.04 µM), 0.588. The relative viability is 0.594 in the test with VX-11e + Olaparib (first compound 0.1265 µM), 0.457 with VX-11e + Olaparib (first compound 0.4 µM), 0.545 in the test with VX-11e + Olaparib (first compound 1.265 µM) and 0.533 with VX-11e + Olaparib (first compound 4 µM).

For NCI-H727, the relative viability amounted to 0.686 in the test with VX-11e + Bortezomib (first compound 0.04 µM); 0.68 with VX-11e + Bortezomib (first compound 0.1265 µM); 0.519 with VX-11e + Bortezomib (first compound 0.4 µM); 0.513 with VX-11e + Bortezomib (first compound 1.265 µM); 0.29 in the test with VX-11e + Bortezomib (first compound 4 µM); 0.432 with VX-11e + Alpelisib (first compound 0.04 µM). The relative viability in the test with VX-11e + Alpelisib (first compound 0.1265 µM) stood at 0.497; in the test with VX-11e + Alpelisib (first compound 0.4 µM), 0.438; in the test with VX-11e + Alpelisib (first compound 1.265 µM) it was 0.333; with VX-11e + Alpelisib (first compound 4 µM), 0.254; in the test with VX-11e + Olaparib (first compound 0.04 µM), 0.626; with VX-11e + Olaparib (first compound 0.1265 µM), 0.593. Further, the relative viability came to 0.747 with VX-11e + Olaparib (first compound 0.4 µM), 0.678 with VX-11e + Olaparib (first compound 1.265 µM) and 0.457 in the test with VX-11e + Olaparib (first compound 4 µM).
